Test results as given in US20250339091A1, “HONEY BEE-DERIVED BIOACTIVE WOUND DRESSING WITH SUSTAINED ANTIMICROBIAL RELEASE” (priority 2025, published 2025).

Assay: fluorescent dye diffusion assays in simulated wound fluid
Assay type: physicochemical
Description: For example, in experiments using rhodamine B as a tracer molecule, diffusion coefficients within the patterned hydrogel matrix increased from 1.4×10^−7 cm^2/s at 35° C. to 3.6×10^−7 cm^2/s at 37.5° C., confirming the gating effect of the thermoresponsive architecture. The permeability enhancement facilitates more rapid passive diffusion of bioactive agents—such as hydrogen peroxide from raw honey or flavonoids from propolis extract—from the surrounding microcapsules into the wound site, even before active actuator-based release is triggered. This early-stage, temperature-coupled passive transport acts as a preemptive therapeutic buffer, delivering antimicrobials during acute inflammatory flares while reducing latency between pathogenic escalation and drug availability.

diffusion coefficient within the patterned hydrogel matrix (at 35° C.): 1.4×10^−7 cm^2/s
diffusion coefficient within the patterned hydrogel matrix (at 37.5° C.): 3.6×10^−7 cm^2/s
SMILES: CCN(CC)c1ccc2c(-c3ccccc3C(=O)O)c3ccc(=[N+](CC)CC)cc-3oc2c1.[Cl-] [rhodamine B]
